Values joined by “and” are separate entries in the source; they are usually repeats but may differ in a detail not shown here. Equal entries are not always repeated. Where two headings read alike, the source gives them in different places. Values belong to the compound of their own block, whether it stands above or below them. [s] = deoxynucleotide carrying the publication's artificial base s, incorporated via its phosphoramidite; [v] = deoxynucleotide carrying the publication's artificial base v, incorporated via its phosphoramidite
What was measured:
T7 RNA polymerase [1] = target: T1, T7 RNA polymerase (Escherichia phage T7, UniProt P00573); settings: natural NTPs 1 mM, sTP 1 mM; for relative yield of full-length (17-mer) transcript: template DNA containing one unnatural base, natural-base template set to 100%; for full-length transcript formation: template containing two unnatural bases
Procedure: Transcription was performed in a 40 mM Tris-HCl (pH 8.0) buffer solution (20 μl) containing 24 mM MgCl2, 2 mM spermidine, 5 mM DTT and 0.01% Triton X-100, in the presence of 1 mM natural NTPs or 1 mM sTP, 2 μCi [γ-^32P]GTP, 2 μM template and 50 units of T7 RNA polymerase (Takara, Kyoto).
The use of [γ-^32P]GTP allowed determination of yields because the transcripts were labeled only at their 5′-end. After incubation at 37° C. for 3 hours, a dye solution (20 μl ) containing 10 M urea and 0.05% BPB was added to stop the reaction. The mixtures were each heated at 75° C. for 3 hours and the products were analyzed on a 20% polyacrylamide-7 M urea gel.
These templates were used to effect transcription for 3 hours, and the transcripts whose 5′-end was labeled with [γ-^32P]GTP were analyzed on a gel. […] The transcripts are labeled with [γ-^32P]GTP at their 5′-end. The relative yield of each transcript was determined in comparison with the yield of a transcript from a template composed only of natural bases, which was set to 100%. Each yield was averaged from 3 to 4 data sets.

T7 RNA polymerase [2] = target: T1, T7 RNA polymerase
Procedure: In this example, to study the selectivity of s-Pa base pair during transcription, composition analysis was performed on nucleotides in the full-length (17-mer) transcripts obtained by transcription from Pa, z and natural templates. The transcripts were each internally labeled with any of [α-^32P]UTP, [α-^32P]ATP or [α-^32]GTP, and these transcripts were completely digested with RNase T2 into a nucleoside 3′-phosphate form. The resulting labeled nucleotides were analyzed by 2D-TLC (FIG. 3), and the spots were quantified for each nucleoside 3′-monophosphate (Table 1).
More specifically, transcription was performed in 40 mM Tris-HCl (pH 8.0) buffer (20 μl) containing 24 mM MgCl2, 2 mM spermidine, 5 mM DTT and 0.01% Triton X-100, in the presence of 10 mM GMP, 1 mM natural NTPs (1 mM, N=A, G, C, U), 0, 1 or 3 mM sTP, 2 μCi [γ-^32P]UTP, [γ-^32P]ATP or [γ-^32P]GTP (Amersham), 2 μM template DNA, and 50 units of T7 RNA polymerase (Takara) (Non-patent Documents 14 and 15). After incubation for 3 hours at 37° C., a dye solution was added to stop the transcription.
This mixture was heated at 75° C. for 3 hours and then electrophoresed on a 15% polyacrylamide-7 M urea gel. The full-length product was eluted from the gel and 0.05 A260 units of E. coli tRNA was then added thereto, followed by ethanol precipitation. The transcript was digested at 37° C. for 2 hours with 0.075 U/μl RNase T2 in 15 mM sodium acetate buffer (pH 4.5). […] The digestion products were analyzed by 2D-TLC using a Merck HPTLC plate (100×100 mm, Merck, Darmstadt, Germany). The developing solvents used for the first and second dimensions were isobutyric acid/NH4OH/H2O (66:1:33 v/v/v) and isopropyl alcohol/HCl/H2O (70:15:15 v/v/v), respectively. The products on the TLC plate were analyzed with a bio-imaging analyzer. Each spot was quantified by averaging from 3 to 9 data sets.

[3] = Excitation and fluorescence spectra of the fluorescent bases; format: physicochemical; settings: for fluorescence wavelength, center: excited at the stated excitation wavelength
T7 RNA polymerase [4] = target: T1, T7 RNA polymerase; settings: 1 mM yTP; template composed only of natural bases (Entry No. 10)
Procedure: T7 RNA polymerase-mediated transcription reaction was accomplished in a reaction solution containing 40 mM Tris-HCl buffer (pH 8.0), 8 mM MgCl2, 2 mM spermidine, 5 mM DTT, 0.01% Triton X-100, 2 μCi [α-^32P]ATP or 2 μCi [α-^32P]GTP or 2 μCi [α-^32P]CTP or 2 μCi [α-^32P]UTP, 1 mM NTPs, 0-1 mM sTP, 0-1 mM yTP, 0.5 μM template DNA, and 50 units of T7 RNA polymerase (Takara). The transcript was purified by electrophoresis on a 15% polyacrylamide-7 M urea gel, eluted from the gel and then collected by ethanol precipitation in the presence of tRNA (0.05 OD). This sample was dissolved in 10 μl sterilized water, and the resulting solution (8.5 μl) was provided for complete digestion with RNase T2. To the solution (8.5 μl), RNase T2 (1.5 μl, 0.5 U/μl) was added and reacted at 37° C. for 2 hours. A part of this solution was spotted on a TLC plate (Merck, 10 cm×10 cm) and developed two-dimensionally. The developing solutions used for the first and second dimensions were isobutyric acid:concentrated aqueous ammonia:water=66:1:33 (v/v/v) and 2-propanol:hydrochloric acid:water=65:10:25 (v/v/v), respectively.
In this technique, upon incorporation of a radioactive substrate, a nucleotide located at the 5′-side of the substrate can be detected on two-dimensional TLC. […]

[5] = FRET between s or v in 35-mer DNA and FAM-y or FAM-hx-y in 17-mer RNA (DNA/RNA duplexes); format: physicochemical; settings: for FRET with 17-mer RNA using excessive DNA probe: 10 molar equivalents of DNA against the 17-mer RNA
From the text: (§1) DNA containing an artificial base s or v was synthesized as described, for example, in WO 01/05801 or WO 2005/026187 by using a cyanoethylphosphoroamidite derivative of a nucleotide containing an artificial base s or v in accordance with the DNA chemical synthesis method well known in the art. The sequence of the chemically synthesized 35-mer DNA is as follows: 5′-CAN1N2N3[…]-3′ (SEQ ID NO: 20; DNA in which N1N2N3 is CTs or CTv is referred to as DNA35s1 or DNA35v1, respectively; DNA in which N1N2N3 is Css or Cvv is referred to as DNA35s2a or DNA35v2a, respectively; and DNA in which N1N2N3 is sTs or vTv is referred to as DNA35s2b or DNA35v2b, respectively). The resulting DNA was purified by gel electrophoresis.
17-mer RNA incorporating FAM-y or FAM-hx-y at the N′ position (5′-[…]′AGUG-3′; SEQ ID NO: 21) was prepared through T7 transcription using T7 RNA polymerase and a substrate of FAM-y or FAM-hx-y (FAM-yTP or FAM-hx-yTP). […] The reaction mixture was heated at 75° C. for 3 minutes and the 17-mer transcript was purified by gel electrophoresis.
(§2) Fluorescence spectra were measured in a buffer containing 10 mM sodium phosphate (pH 7.0), 100 mM NaCl and 0.1 mM EDTA. Emission spectra were recorded with an excitation wavelength of 350 nm for s and 360 nm for v, respectively. The emission spectral bandpass was set to 5 nm.
The 17-mer RNA site-specifically incorporating FAM-y or FAM-hx-y was hybridized with 35-mer DNA site-specifically containing one or two s or v bases (DNA35s1, 35s2a, 35S2b, 35v1, 35v2a or 35v2b) to measure emission spectra for the DNA/RNA duplex at different temperatures (20° C. and 70° C.).

[6] = Steady-state fluorescence emission of single-stranded DNAs containing s or v; format: physicochemical; settings: single-stranded 35-mer DNA with two artificial bases
From the text: as §1, §2

T1 sequence (P00573 whole entry): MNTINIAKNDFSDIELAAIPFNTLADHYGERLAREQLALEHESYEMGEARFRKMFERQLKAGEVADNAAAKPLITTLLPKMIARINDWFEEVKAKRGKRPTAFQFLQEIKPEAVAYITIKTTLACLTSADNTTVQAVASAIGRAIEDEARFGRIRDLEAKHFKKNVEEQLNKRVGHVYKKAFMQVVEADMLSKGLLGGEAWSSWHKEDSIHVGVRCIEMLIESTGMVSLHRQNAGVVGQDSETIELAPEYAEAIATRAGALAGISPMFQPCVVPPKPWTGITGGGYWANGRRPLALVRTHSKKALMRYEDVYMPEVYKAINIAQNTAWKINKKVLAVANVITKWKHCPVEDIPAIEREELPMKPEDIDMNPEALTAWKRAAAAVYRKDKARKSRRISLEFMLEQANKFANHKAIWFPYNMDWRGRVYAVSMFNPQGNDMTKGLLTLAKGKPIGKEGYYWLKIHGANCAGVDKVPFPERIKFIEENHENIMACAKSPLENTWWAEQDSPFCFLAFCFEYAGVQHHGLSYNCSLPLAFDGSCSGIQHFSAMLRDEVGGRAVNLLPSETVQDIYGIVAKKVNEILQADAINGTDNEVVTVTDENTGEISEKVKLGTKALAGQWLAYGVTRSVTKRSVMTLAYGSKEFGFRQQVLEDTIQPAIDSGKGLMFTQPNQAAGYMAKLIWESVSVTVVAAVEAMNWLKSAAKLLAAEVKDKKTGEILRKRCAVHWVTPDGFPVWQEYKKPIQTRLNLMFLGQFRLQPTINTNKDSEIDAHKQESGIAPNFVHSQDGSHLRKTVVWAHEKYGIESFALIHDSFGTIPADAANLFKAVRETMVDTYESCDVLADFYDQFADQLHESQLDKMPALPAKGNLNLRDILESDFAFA

Compound: 2-formyl-1H-pyrrol-1-yl group [Pa]
relative yield of full-length (17-mer) transcript (T7 RNA polymerase [1]): 92%
full-length transcript formation (T7 RNA polymerase [1]): full-length products were obtained

Compound: 2-oxo-1,3-dihydroimidazol-1-yl group [reference compound]
relative yield of full-length (17-mer) transcript (T7 RNA polymerase [1]): 35%
full-length transcript formation (T7 RNA polymerase [1]): no full-length transcript was obtained

Compound: Nc1nc(-c2cccs2)c2nc[nH]c2n1 [s, 2-amino-6-(2-thienyl)-9H-purin-9-yl group]
selectivity of s incorporation into RNA opposite Pa in the template DNA (T7 RNA polymerase [2]; template containing one Pa base, sTP 1 mM (Table 1, Entry No. 1)): 97%
selectivity of s incorporation at the first position (T7 RNA polymerase [2]; template containing two Pa bases): 95%
selectivity of s incorporation at the second position (T7 RNA polymerase [2]; template containing two Pa bases, sTP 1 mM): 84-87%
selectivity of s incorporation at the second position (T7 RNA polymerase [2]; template containing two Pa bases, sTP 3 mM): 89-93%
excitation wavelength (maximum) [3]: 352 nm and 299 nm
fluorescence wavelength, center [3]: 434 nm
quantum yield of the fluorescence ([3]; pH 7.0): 0.41

Compound: Nc1nc(-c2cccs2)c2ncn([C@@H]3O[C@H](COP(=O)(O)OP(=O)(O)OP(=O)(O)O)[C@@H](O)[C@H]3O)c2n1 [sTP, 2-amino-6-(2-thienyl)-9-(1-β-D-ribofuranosyl)purine 5′-triphosphate]
misincorporation of sTP opposite natural bases in the template (T7 RNA polymerase [2]; Table 1, Entry Nos. 4 and 6): no misincorporation

excitation wavelength (maximum) [3]: 325 nm
fluorescence wavelength, center [3]: 381 nm
Compound: c1csc(-c2ncnc3[nH]cnc23)c1 [s′, 6-(2-thienyl)-9H-purin-9-yl group]

excitation wavelength (maximum) [3]: 363 nm
fluorescence wavelength, center [3]: 461 nm
Compound: Nc1nc(-c2nccs2)c2nc[nH]c2n1 [v, 2-amino-6-(2-thiazolyl)-9H-purin-9-yl group]

Compound: O=c1[nH]cccc1C1OC(COP(=O)(O)OP(=O)(O)OP(=O)(O)O)C(O)C1O (stereo not shown) [yTP]
incorporation of yp opposite natural template bases (T7 RNA polymerase [4]): a slight amount of yp was incorporated

Compound: DNA35s1: 35-mer DNA (SEQ ID NO: 20) in which N1N2N3 is CTs (DNA CACTNCTCGGGATTCCCTATAGTGAGTCGTATTAT; DNA, [s] at 5, backbone, methylation of C and the base at N not given here)
FRET with 17-mer RNA using excessive DNA probe [5]: completely buried in the background fluorescence
FRET in duplex with 17-mer RNA incorporating FAM-y or FAM-hx-y ([5]; 20° C.): FRET occurred
FRET in duplex with 17-mer RNA incorporating FAM-y or FAM-hx-y ([5]; duplex denatured at 70° C.): FRET was significantly reduced

Compound: DNA35s2a: 35-mer DNA (SEQ ID NO: 20) in which N1N2N3 is Css (DNA CACNNCTCGGGATTCCCTATAGTGAGTCGTATTAT; DNA, [s] at 4, 5, backbone, methylation of C and the base at N not given here)
FRET with 17-mer RNA using excessive DNA probe [5]: FRET was clearly observed
FRET in duplex with 17-mer RNA incorporating FAM-y or FAM-hx-y ([5]; 20° C.): FRET occurred efficiently
fluorescence intensity of single-stranded DNA [6]: significantly decreased

Compound: DNA35s2b: 35-mer DNA (SEQ ID NO: 20) in which N1N2N3 is sTs (DNA CANTNCTCGGGATTCCCTATAGTGAGTCGTATTAT; DNA, [s] at 3, 5, backbone, methylation of C and the base at N not given here)
fluorescence intensity of single-stranded DNA [6]: no significant decrease

Compound: DNA35v1: 35-mer DNA (SEQ ID NO: 20) in which N1N2N3 is CTv (DNA CACTNCTCGGGATTCCCTATAGTGAGTCGTATTAT; DNA, [v] at 5, backbone, methylation of C and the base at N not given here)
FRET with 17-mer RNA using excessive DNA probe [5]: completely buried in the background fluorescence
FRET in duplex with 17-mer RNA incorporating FAM-y or FAM-hx-y ([5]; 20° C.): FRET occurred
FRET in duplex with 17-mer RNA incorporating FAM-y or FAM-hx-y ([5]; duplex denatured at 70° C.): FRET was significantly reduced

Compound: DNA35v2a: 35-mer DNA (SEQ ID NO: 20) in which N1N2N3 is Cvv (DNA CACNNCTCGGGATTCCCTATAGTGAGTCGTATTAT; DNA, [v] at 4, 5, backbone, methylation of C and the base at N not given here)
FRET with 17-mer RNA using excessive DNA probe [5]: FRET was clearly observed
FRET in duplex with 17-mer RNA incorporating FAM-y or FAM-hx-y ([5]; 20° C.): FRET occurred efficiently
fluorescence intensity of single-stranded DNA [6]: significantly decreased

Compound: DNA35v2b: 35-mer DNA (SEQ ID NO: 20) in which N1N2N3 is vTv (DNA CANTNCTCGGGATTCCCTATAGTGAGTCGTATTAT; DNA, [v] at 3, 5, backbone, methylation of C and the base at N not given here)
fluorescence intensity of single-stranded DNA [6]: no significant decrease

Source: patent US8212014B2, “Artificial base pairs and uses thereof” (Riken, priority 2005, dated 2012)
